IC50 data for one compound are collected here from patent publication US11253610B2, “Plant virus particles for delivery of antimitotic agents” (CASE WESTERN RESERVE UNIVERSITY, priority 2015, dated 2022).

The conditions of experiment [1]: vary with assay set up, time course and cell lines used; read-out: IC50 values in the literature; cited from earlier work.
Experiment [2] deals with Karpas 299 cells. The experiment is described as follows: Cell viability assay (Alamar Blue). Type of experiment: cell-based, human. To be noted: 72 hours incubation, read-out: IC50 (drug concentration where half of the cells are killed). The procedure:
Cell culture. Karpas 299 cells (ATCC) were maintained in RPMI-1640 at 37° C. in a 5% CO2 humidified atmosphere. The medium was supplemented with 20% (v/v) heat-inactivated fetal bovine serum (FBS), and 1% (v/v) penicillin-streptomycin. All reagents were obtained from Gibco.
Cell viability assay. Cells at a concentration of 10,000 cells/mL were seeded in a sterile, tissue culture-treated, 96-well clear bottom plate for 24 hours at 37° C. in a 5% CO2 humidified atmosphere. Cells were then incubated with fresh media with 0.02 nM to 200 nM VcMMAE for 72 hours. At 92 hours, Alamar Blue (ThermoFisher) was added, and cell viability was measured at 96 hours according to the manufacturer's instructions using a fluorescence plate reader with […].
To evaluate the efficacy of TMV-vcMMAE, cell viability assays were performed using Alamar Blue assay Alamar Blue reagent is primarily made of resazurin, a nontoxic cell permeable non-fluorescent blue molecule. […]
Karpas 299 cells were seeded for 24 hours and then incubated with free vcMMAE or TMV-MMAE for 72 hours. At 92 hours, Alamar Blue was added and the cells fluorescence was measured after 4 hours of incubation at 540 nm excitation and 610 nm emission. The results for both free vcMMAE and TMV-MMAE are plotted in FIG. 4, and the IC50 values were calculated. […]
A general note: Resazurin is reduced to fluorescent resorufin, in cell work by metabolically active cells.

Numbered stars: 1 amine (or outer) side, 2 acyl side, 3 side chain; on linkers, the order of the positions; unused ones are H or OH. Square brackets hold non-standard residues; d marks the D form. Peptide text beside a SMILES is read from it. * marks the point of attachment. Dolaproine = CO[C@@H]([C@@H]1CCCN1)[C@@H](C)C(=O)O; Hexanoyl(6-maleimido) = O=C1C=CC(=O)N1CCCCCC(=O)*; Dil = CC[C@H](C)[C@H](NC)[C@@H](CC(=O)O)OC; PABC = O=C(OCc1ccc(N[*:1])cc1)[*:2]; X1 = C[C@@H](N*)[C@@H](O)c1ccccc1; Cit = NC(=O)NCCC[C@H](N)C(=O)O; NMeV = CN[C@H](C(=O)O)C(C)C

For `CC[C@H](C)[C@@H]([C@@H](CC(=O)N1CCC[C@H]1[C@H](OC)[C@@H](C)C(=O)N[C@H](C)[C@@H](O)c1ccccc1)OC)N(C)C(=O)[C@@H](NC(=O)[C@H](C(C)C)N(C)C(=O)OCc1ccc(NC(=O)[C@H](CCCNC(N)=O)NC(=O)[C@@H](NC(=O)CCCCCN2C(=O)C=CC2=O)C(C)C)cc1)C(C)C` [vcMMAE, valine-citrulline monomethyl auristatin E] ({Hexanoyl(6-maleimido)}-V[Cit][PABC][NMeV]V[Dil][Dolaproine]-X1), the IC50 is ~5 nM in experiment [1] and ~25.8 nM in experiment [2].
